This passage reports MIC results from DBAASP.

Values after ≈ are worked out from the molar mass of the structure shown. Values joined by “and” are separate entries in the source; they are usually repeats but may differ in a detail not shown here. Equal values may be shown once. Bounds are passed on as bounds.

Some test systems named below: Acinetobacter baumannii; Escherichia coli; Klebsiella pneumoniae; Pseudomonas aeruginosa; Staphylococcus aureus.
Experiment in all cases: ≥ marks a high value that may be exact or a test limit, other limits are often not marked, values filed in µg/mL are converted to µM
The subject of test [1] is Candida albicans ATCC 90028.
For test [2], the system named is Escherichia coli ATCC 25922.
For test [3], the system named is Staphylococcus aureus NCTC 8325.
The test system of test [4] is Bacillus subtilis KCTC 3068.
Test [5] deals with Escherichia coli KCTC 1682.
In test [6] the test system is Pseudomonas aeruginosa KCTC 1637.
The subject of test [7] is Salmonella typhimurium KCTC 1926.
Test [8] concerns Staphylococcus aureus KCTC 1621.
In test [9] the test system is Staphylococcus epidermidis KCTC 1917.
The test system of test [10] is Klebsiella pneumoniae ATCC 13883.
Test [11] has as its system Pseudomonas aeruginosa PAO1.
Test [12] has as its system Staphylococcus aureus USA 300.
For test [13], the system named is Acinetobacter baumannii ATCC 19606.
The subject of test [14] is Pseudomonas aeruginosa ATCC 27853.
Test [15] relates to Staphylococcus aureus ATCC 25923.
The subject of test [16] is Salmonella enterica subsp. enterica serovar Typhimurium ATCC 14028.

For the compound `CC[C@H](C)[C@H](NC(=O)CN)C(=O)N[C@@H](CC(C)C)C(=O)N[C@@H](CC(=O)O)C(=O)N[C@H](C(=O)N[C@H](C(=O)N[C@@H](CCCCN)C(=O)N[C@@H](CC(N)=O)C(=O)N[C@@H](C)C(=O)N[C@@H](C)C(=O)N[C@@H](CCCCN)C(=O)N[C@H](C(=O)N[C@H](C(=O)N[C@@H](C)C(=O)N[C@H](C(=O)NCC(=O)N[C@@H](CC(C)C)C(=O)N[C@@H](CC(C)C)C(=O)N[C@@H](CCC(=O)O)C(=O)N[C@@H](CCCCN)C(=O)N[C@H](C(=O)N[C@@H](CCCCN)C(=O)N[C@H]1CSSC[C@@H](C(=O)O)NC(=O)CNC(=O)[C@H]([C@@H](C)O)NC(=O)[C@H](CCSC)NC(=O)[C@H](CCCCN)NC1=O)[C@@H](C)CC)C(C)C)C(C)C)[C@@H](C)O)[C@@H](C)CC)[C@@H](C)O` [GILDTIKNAAKTVAVGLLEKIKCKMTGC], the MIC in [1] was at least 150 µM; in test [2] it was 17 µM (≈ 49.6 µg/mL); in test [3] it was at least 70 µM.
As for `CC(C)C[C@H](NC(=O)[C@H](Cc1ccccc1)NC(=O)[C@H](CCCN=C(N)N)NC(=O)[C@H](CCCCN)NC(=O)[C@H](Cc1c[nH]c2ccccc12)NC(=O)[C@H](CCCN=C(N)N)NC(=O)[C@H](CCC(N)=O)NC(=O)[C@@H](NC(=O)[C@H](Cc1c[nH]c2ccccc12)NC(=O)[C@H](CCCN=C(N)N)NC(=O)[C@H](CCCCN)NC(=O)[C@@H](N)Cc1ccccc1)C(C)C)C(=O)N[C@@H](CCCN=C(N)N)C(N)=O` [FKRWVQRWKRFLR], the MIC in test [4] came to 2 µM (≈ 3.81 µg/mL); in [5] it was 4 µM (≈ 7.62 µg/mL); in test [6], 16 µM (≈ 30.5 µg/mL); in test [7], 2 µM (≈ 3.81 µg/mL); in test [8], 2 µM (≈ 3.81 µg/mL); in test [9], 4 µM (≈ 7.62 µg/mL).
As to `CC[C@H](C)[C@H](NC(=O)CNC(=O)[C@H](CCCCN)NC(=O)[C@H](Cc1ccccc1)NC(=O)[C@@H](NC(=O)[C@H](CCCCN)NC(=O)[C@H](CCCCN)NC(=O)[C@H](CC(C)C)NC(=O)[C@H](C)NC(=O)[C@H](CC(N)=O)NC(=O)[C@H](CC(C)C)NC(=O)CN)C(C)C)C(=O)N[C@@H](Cc1cnc[nH]1)C(=O)N[C@@H](CCC(=O)O)C(=O)N[C@@H](C)C(=O)N[C@H](C(=O)N[C@@H](CCCCN)C(=O)N[C@@H](CC(C)C)C(=O)N[C@H](C(=O)N[C@@H](CC(N)=O)C(=O)N[C@@H](CC(N)=O)C(=O)N[C@@H](Cc1cnc[nH]1)C(=O)N[C@H](C(=O)N[C@@H](CCC(N)=O)C(=O)O)C(C)C)[C@@H](C)CC)[C@@H](C)CC` [GLNALKKVFKGIHEAIKLINNHVQ], the minimum inhibitory concentration (MIC) in [2] is 20 µM (≈ 53.7 µg/mL); in test [3], at least 80 µM.
With `CC[C@H](C)[C@H](NC(=O)CNC(=O)[C@H](CCC(N)=O)NC(=O)[C@H](Cc1ccccc1)NC(=O)[C@@H](NC(=O)[C@H](CCCCN)NC(=O)[C@H](CCCCN)NC(=O)[C@H](Cc1ccccc1)NC(=O)[C@H](C)NC(=O)[C@H](CC(N)=O)NC(=O)[C@H](CC(C)C)NC(=O)CN)C(C)C)C(=O)N[C@@H](Cc1cnc[nH]1)C(=O)N[C@@H](CCC(=O)O)C(=O)N[C@@H](C)C(=O)N[C@H](C(=O)N[C@@H](CCCCN)C(=O)N[C@@H](CC(C)C)C(=O)N[C@H](C(=O)N[C@@H](CC(N)=O)C(=O)N[C@@H](CC(N)=O)C(=O)N[C@@H](Cc1cnc[nH]1)C(=O)N[C@H](C(=O)N[C@@H](CCC(N)=O)C(=O)O)C(C)C)[C@@H](C)CC)[C@@H](C)CC` [GLNAFKKVFQGIHEAIKLINNHVQ], the MIC was 20 µM (≈ 54.4 µg/mL) in [2] and at least 160 µM in [3].
Consider `CC(C)C[C@H](NC(=O)[C@H](CC(C)C)NC(=O)[C@H](CCCCN)NC(=O)CNC(=O)[C@H](CC(C)C)NC(=O)[C@H](C)NC(=O)[C@H](CO)NC(=O)[C@H](CC(C)C)NC(=O)[C@H](CC(C)C)NC(=O)[C@H](CO)NC(=O)[C@H](CC(C)C)NC(=O)[C@H](CC(C)C)NC(=O)CN)C(N)=O` [GLLSLLSALGKLL], for which the minimum inhibitory concentration (MIC) in [2] was over 25 µM; in [10] it was 25 µM (≈ 32.4 µg/mL); in test [11] it was over 25 µM; in test [12], 1.56 µM (≈ 2.02 µg/mL).
For `CC[C@H](C)[C@H](NC(=O)CNC(=O)[C@H](CCC(N)=O)NC(=O)[C@H](Cc1ccccc1)NC(=O)[C@@H](NC(=O)[C@H](CCCCN)NC(=O)[C@H](CCCCN)NC(=O)[C@H](CC(C)C)NC(=O)[C@H](C)NC(=O)[C@H](CC(N)=O)NC(=O)[C@H](CC(C)C)NC(=O)CN)C(C)C)C(=O)N[C@@H](Cc1cnc[nH]1)C(=O)N[C@@H](CCCCN)C(=O)N[C@@H](C)C(=O)N[C@H](C(=O)N[C@@H](CCCCN)C(=O)N[C@@H](CC(C)C)C(=O)N[C@H](C(=O)N[C@@H](CC(N)=O)C(=O)N[C@@H](CC(N)=O)C(=O)N[C@@H](Cc1cnc[nH]1)C(=O)N[C@H](C(=O)N[C@@H](CCC(N)=O)C(=O)O)C(C)C)[C@@H](C)CC)[C@@H](C)CC` [GLNALKKVFQGIHKAIKLINNHVQ], the results for the MIC in [2] and in [3] were 20 µM (≈ 53.7 µg/mL) and at least 40 µM, respectively.
The like results for `CC[C@H](C)[C@H](NC(=O)CNC(=O)[C@H](CCCCN)NC(=O)[C@H](Cc1ccccc1)NC(=O)[C@@H](NC(=O)[C@H](CCCCN)NC(=O)[C@H](CCCCN)NC(=O)[C@H](CC(C)C)NC(=O)[C@H](C)NC(=O)[C@H](CCCCN)NC(=O)[C@H](CC(C)C)NC(=O)CN)C(C)C)C(=O)N[C@@H](Cc1cnc[nH]1)C(=O)N[C@@H](CCCCN)C(=O)N[C@@H](C)C(=O)N[C@H](C(=O)N[C@@H](CCCCN)C(=O)N[C@@H](CC(C)C)C(=O)N[C@H](C(=O)N[C@@H](CC(N)=O)C(=O)N[C@@H](CCCCN)C(=O)N[C@@H](Cc1cnc[nH]1)C(=O)N[C@H](C(=O)N[C@@H](CCCCN)C(=O)O)C(C)C)[C@@H](C)CC)[C@@H](C)CC` [GLKALKKVFKGIHKAIKLINKHVK] were, in that order, 5 µM (≈ 13.6 µg/mL) and 20 µM (≈ 54.2 µg/mL).
`CC[C@H](C)[C@H](NC(=O)[C@H](CCCCN)NC(=O)[C@H](CC(C)C)NC(=O)[C@H](C)NC(=O)[C@H](CCCCN)NC(=O)[C@H](CC(C)C)NC(=O)[C@H](C)NC(=O)CNC(=O)[C@H](CCCCN)NC(=O)[C@H](C)NC(=O)[C@@H](NC(=O)[C@@H](N)CCCCN)[C@@H](C)CC)C(=O)N[C@@H](C)C(=O)N[C@@H](CCCCN)C(=O)N[C@H](C(=O)N[C@@H](C)C(=O)N[C@@H](CC(C)C)C(=O)N[C@@H](CCCCN)C(=O)N[C@@H](C)C(=O)N[C@@H](CC(C)C)C(N)=O)C(C)C` [KIAKGALKALKIAKVALKAL]: the MIC in test [13] turned out to be 0.707 µM (≈ 1.45 µg/mL); in the test with Acinetobacter baumannii, 0.5 µM (≈ 1.02 µg/mL); in test [2], 0.354 µM (≈ 0.724 µg/mL); against Escherichia coli, 4 µM (≈ 8.19 µg/mL); in [10] it was 2 µM (≈ 4.1 µg/mL); with Klebsiella pneumoniae, 4 µM (≈ 8.19 µg/mL). Further, the minimum inhibitory concentration (MIC) in test [14] was 2 µM (≈ 4.1 µg/mL); against Pseudomonas aeruginosa it was 2.83 µM (≈ 5.79 µg/mL); in test [15] it was 11.3 µM (≈ 23.2 µg/mL); against Staphylococcus aureus it was 5.66 µM (≈ 11.6 µg/mL).
Turning to `CC(C)C[C@H](NC(=O)[C@H](CCCN=C(N)N)NC(=O)[C@H](CCCN=C(N)N)NC(=O)[C@H](C)NC(=O)[C@H](Cc1c[nH]c2ccccc12)NC(=O)CNC(=O)[C@H](CCCN=C(N)N)NC(=O)[C@@H](N)CCCN=C(N)N)C(=O)N[C@@H](C)C(=O)N[C@@H](C)C(=O)N[C@@H](C)C(=O)N[C@@H](Cc1ccc(O)cc1)C(=O)NCC(=O)N[C@@H](CCCN=C(N)N)C(=O)N[C@@H](CCCN=C(N)N)C(N)=O` [RRGWARRLAAAYGRR], the minimal inhibitory concentration (MIC) in test [13] was 25.4 µM and 30 µM; in [2] it was 18.1 µM and 30 µM; in test [10] it was 30 µM (≈ 54.5 µg/mL); in test [16], over 30 µM; in [15], over 30 µM.
Regarding `CSCC[C@H](NC(=O)[C@H](CC(C)C)NC(=O)[C@H](CO)NC(=O)CNC(=O)[C@H](C)NC(=O)[C@@H](NC(=O)[C@H](CC(N)=O)NC(=O)[C@H](CCCCN)NC(=O)[C@H](CC(C)C)NC(=O)[C@@H](NC(=O)[C@H](CC(N)=O)NC(=O)[C@H](CCCCN)NC(=O)CNC(=O)[C@@H](NC(=O)[C@H](CCCCN)NC(=O)[C@H](CCCCN)NC(=O)[C@H](Cc1ccccc1)NC(=O)[C@@H](NC(=O)[C@H](CC(N)=O)NC(=O)[C@H](Cc1ccccc1)NC(=O)[C@H](CC(C)C)NC(=O)CN)C(C)C)C(C)C)C(C)C)C(C)C)C(=O)N[C@@H](CC(=O)O)C(=O)N[C@@H](CC(N)=O)C(=O)N[C@@H](CC(C)C)C(=O)N[C@@H](CCCCN)C(=O)N[C@H]1CSSC[C@@H](C(=O)O)NC(=O)[C@H](CCC(=O)O)NC(=O)CNC(=O)[C@H](CO)NC(=O)[C@H](C(C)C)NC(=O)[C@H](CCCCN)NC1=O` [GLFNVFKKVGKNVLKNVAGSLMDNLKCKVSGEC], the minimum inhibitory concentration (MIC) was 3 µM (≈ 10.6 µg/mL) in [2] and at least 50 µM in test [3].
